Experimental data reported in PubChem BioAssay (NCI).
“And” between values parts separate entries of the source, which are not always exact repeats. Equal entries are not always repeated.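 Briefly, cells in 96-well plates were exposed to five compound concentrations for 48 h, and endpoints were estimated by linear interpolation. At the GI50, growth is halved. TGI is the concentration that stops growth completely.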

Legend:
Assay in all cases: NCI tumour cell line growth inhibition, 48 h
OVCAR-8 ovarian = tested on: OVCAR-8 ovarian
HS 578T breast = tested on: HS 578T breast
HCT-15 colon = tested on: HCT-15 colon
DU-145 prostate = tested on: DU-145 prostate
NCI-H460 lung = tested on: NCI-H460 lung
HOP-92 NSCLC = tested on: HOP-92 NSCLC
SNB-19 CNS = tested on: SNB-19 CNS
PC-3 prostate = tested on: PC-3 prostate
U251 CNS = tested on: U251 CNS

SMILES | TGI (OVCAR-8 ovarian) [µM] | TGI (HS 578T breast) [µM] | TGI (HCT-15 colon) [µM] | TGI (DU-145 prostate) [µM] | TGI (NCI-H460 lung) [µM] | TGI (HOP-92 NSCLC) [µM] | TGI (SNB-19 CNS) [µM] | TGI (PC-3 prostate) [µM] | TGI (U251 CNS) [µM] | GI50 (HCT-15 colon)
O=c1[nH]nc(-c2ccccc2)c2[nH]c3c(c12)Cc1ccccc1-3 | > 100 | > 100 | > 100 | > 100 | > 100 | 9.68 | > 100 | > 100 | > 100 | –
COc1cccc(C(C#N)NNC(=O)c2c(Cl)c(Cl)c(Cl)c(Cl)c2-c2nc3ccc(C(=O)c4ccccc4)cc3[nH]2)c1O (stereo not drawn) | > 100 | – | > 100 | > 100 | – | > 100 | 24.7 | > 100 | > 100 | –
Cc1ccc(-n2nncc2[Si](C)(C)C)s1 | > 100 | > 100 | > 100 | > 100 | > 100 | > 100 | > 100 | > 100 | > 100 | –
O=C1C=CC2(O[C@H](C3CCCCC3)[C@@H](C3CCCCC3)O2)C(SC(=O)c2ccccc2)C1 (stereo partly drawn) | 13.9 | 10.9 | 9.47 | 10.4 | 17.6 | 16.8 | 6.56 | 7.43 | 6.86 | –
Cc1cc(N2CCCCC2)nc2ccc(Cc3ccc4nc(N5CCCCC5)cc(C)c4c3)cc12 | > 100 | > 100 | > 100 | > 100 | > 100 | > 100 | > 100 | > 100 | > 100 | –
CC(C)(C)c1cc(OCc2nnc3sc(Cc4ccccc4)nn23)c(Cl)cc1OCc1nnc2sc(Cc3ccccc3)nn12 | 73.6 | > 100 | > 100 | > 100 | 42.5 | 35.4 | > 100 | > 100 | 34.6 | –
Cc1cc2nc3ccccc3n2c2ccccc12 | > 10 | > 10 | > 10 | > 10 | > 10 | – | > 10 | > 10 | > 10 | –
COc1ccc(-n2c(N)c(C#N)c(C#N)c2-c2ccco2)cc1 | > 100 | > 100 | > 100 | > 100 | – | > 100 | > 100 | > 100 | > 100 | –
N/N=C(/N)SCCCCCCCCCCS/C(N)=N/N | 39.3 | > 100 | 27.5 | > 100 | 32.7 | – | > 100 | > 100 | 51.4 | –
Cc1ccc(S(=O)(=O)OCCC2CN(C(=O)OCc3ccccc3)C(C)(C)O2)cc1 (stereo not drawn) | 29.4 | – | 32.5 | > 100 | 14.3 | > 100 | 27.3 | 50 | > 100 | –
O=c1cc(N2CCOCC2)n2c(ccc3ccccc32)n1 | > 100 | > 100 | > 100 | – | – | > 100 | > 100 | > 100 | > 100 | –
O=C1c2ccncc2C(=O)c2c(O)ccc(O)c21 | 21.4 | – | 24.3 | – | 29.4 | 32.4 | 24.8 | – | 30.3 | –
CC(=O)/C=C/c1ccccc1 | 72.9 | > 100 | > 100 | > 100 | > 100 | – | > 100 | > 100 | > 100 | –
COC(=O)[C@@H](NS(=O)(=O)CC12CCC(CC1)C2(C)C)C(C)(C)C | > 100 | > 100 | > 100 | > 100 | > 100 | > 100 | > 100 | – | > 100 | –
O=c1c2ccccc2nc(N/N=C/c2ccc([N+](=O)[O-])cc2)n1-c1ccccc1 | > 100 | 68.1 | > 100 | > 100 | > 100 | – | > 100 | > 100 | 48.4 | –
COc1cccc2c1OC1c3ccccc3OCC1(O)C2 (stereo not drawn) | > 100 | – | > 100 | > 100 | – | > 100 | – | > 100 | > 100 | –
[N-]=[N+]=Nc1nc2ccccc2c(N=[N+]=[N-])c1Cl | – | > 100 | > 100 | > 100 | > 100 | > 100 | > 100 | > 100 | > 100 | –
COc1ccc(/C=c2\[nH]c3nc(=O)c(N4CCCCC4)c(N)n3c2=O)cc1 | > 100 | > 100 | > 100 | > 100 | – | > 100 | > 100 | – | > 100 | –
Cc1cc2c(c(C(=O)NCC(=O)O)c1)Oc1c(cc(C)cc1C(=O)NCC(=O)O)S2 | > 100 | > 100 | > 100 | > 100 | – | > 100 | > 100 | > 100 | > 100 | –
O=CC(O)C(O)C(O)C(O)COC(=O)NCCCCC(=O)C(F)(F)C(F)(F)C(F)(F)C(F)(F)C(F)(F)C(F)(F)C(F)(F)F (stereo not drawn) | – | 64.6 | > 100 | > 100 | 67.6 | 31.8 | 31.8 | 41.5 | – | –
CC(=O)OCC1OC(SC2=NC(=O)CS2)C(OC(C)=O)C(OC(C)=O)C1OC(C)=O (stereo not drawn) | > 100 | > 100 | > 100 | > 100 | > 100 | – | > 100 | > 100 | – | 26.3 µM and 53 µM
CCOC(=O)CCc1cn2cc(Br)nc(OC)c2n1 | > 100 | > 100 | > 100 | > 100 | > 100 | – | > 100 | > 100 | > 100 | –
CC(C)[C@H](C)/C=C/[C@@H](C)C1CC[C@H]2[C@@]34C=C[C@]5(C[C@@H](O)CC[C@]5(C)[C@H]3CC[C@]12C)OO4 (stereo partly drawn) | 66.4 | – | > 100 | 56 | > 100 | 92.3 | 81.7 | – | 58.5 | –
CC(C)(C)OC(=O)C(C#N)C(=O)c1ccc(C(=O)O)[nH]1 (stereo not drawn) | > 100 | – | > 100 | > 100 | > 100 | 73.6 | > 100 | > 100 | > 100 | –
